Reference: patent US20250145585A1, “HETEROCYCLIC INHIBITORS OF IGF-1R FOR TREATMENT OF DISEASE” (HORIZON THERAPEUTICS IRELAND DAC, priority 2023, published 2025)

Tests used:
IGF-1R [1] = target: T1, IGF-1R (Homo sapiens, UniProt P08069); assay: Example B-2: IGF-1R Assay (PathHunter cell lines, EC80 agonist challenge, chemiluminescent detection); format: cell-based; settings: PathHunter cells, compound 60 minutes at 37° C., EC80 agonist 3 hours; read-out: IC50, Biological Activity against IGF-1R (Table B2)
T1 construct: expressed in transfected cells
T1 sequence (P08069 31-1367): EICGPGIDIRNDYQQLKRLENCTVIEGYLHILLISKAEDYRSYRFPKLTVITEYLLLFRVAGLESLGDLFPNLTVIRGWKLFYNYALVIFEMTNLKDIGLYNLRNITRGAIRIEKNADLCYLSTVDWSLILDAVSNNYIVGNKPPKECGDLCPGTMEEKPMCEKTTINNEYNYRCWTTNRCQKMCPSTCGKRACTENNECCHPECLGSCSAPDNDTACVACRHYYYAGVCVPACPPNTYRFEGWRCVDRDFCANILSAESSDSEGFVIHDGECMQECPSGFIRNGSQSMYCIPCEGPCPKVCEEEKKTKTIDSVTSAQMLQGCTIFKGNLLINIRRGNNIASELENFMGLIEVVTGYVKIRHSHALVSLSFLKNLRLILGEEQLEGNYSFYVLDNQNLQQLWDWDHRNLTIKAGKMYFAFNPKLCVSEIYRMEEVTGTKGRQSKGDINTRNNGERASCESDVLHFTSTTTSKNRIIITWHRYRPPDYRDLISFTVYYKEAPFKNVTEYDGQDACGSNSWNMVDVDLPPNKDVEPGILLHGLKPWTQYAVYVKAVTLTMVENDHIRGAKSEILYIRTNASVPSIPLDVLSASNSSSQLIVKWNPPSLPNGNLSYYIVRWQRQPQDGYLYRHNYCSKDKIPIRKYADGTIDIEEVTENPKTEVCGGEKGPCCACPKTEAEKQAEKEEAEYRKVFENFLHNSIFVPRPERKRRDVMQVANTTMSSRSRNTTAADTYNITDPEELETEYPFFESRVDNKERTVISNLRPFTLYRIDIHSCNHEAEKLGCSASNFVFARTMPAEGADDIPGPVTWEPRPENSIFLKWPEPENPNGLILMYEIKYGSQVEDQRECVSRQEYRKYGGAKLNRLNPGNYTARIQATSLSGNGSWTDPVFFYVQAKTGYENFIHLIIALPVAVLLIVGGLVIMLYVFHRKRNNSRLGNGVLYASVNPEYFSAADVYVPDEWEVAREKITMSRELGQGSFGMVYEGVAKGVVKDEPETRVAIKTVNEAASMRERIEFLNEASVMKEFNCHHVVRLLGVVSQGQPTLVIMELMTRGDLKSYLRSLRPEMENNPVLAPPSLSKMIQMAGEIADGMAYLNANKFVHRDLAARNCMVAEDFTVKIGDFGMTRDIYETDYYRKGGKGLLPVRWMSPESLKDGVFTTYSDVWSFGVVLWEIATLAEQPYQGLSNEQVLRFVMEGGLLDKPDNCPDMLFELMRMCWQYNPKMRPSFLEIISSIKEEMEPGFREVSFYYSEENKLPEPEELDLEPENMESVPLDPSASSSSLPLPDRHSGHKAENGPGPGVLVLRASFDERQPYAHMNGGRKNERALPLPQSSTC
Procedure, shortened: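 Read-out is PathHunter chemiluminescence, developed for 1 h at room temperature after a 3 h room-temperature EC80 agonist challenge that followed 60 min compound pre-treatment at 37° C (1% vehicle). IC50 comes from % inhibition normalized to EC80 and vehicle controls.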

IGF-1R [2] = target: T1, IGF-1R; assay: Example B-1: IGF-1R Assay (PC3 cells stimulated with IGF1, AlphaLISA on cell lysates); format: cell-based; settings: compound two hours, IGF1 200 ng/mL for 30 min, read-out: IC50, Biological Activity against IGF-1R (Table B1)
Procedure, shortened: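 IC50 from AlphaLISA read-out of lysed PC3 cells, percent inhibition normalized between vehicle and EC80 controls. Before lysis, cells had 2 h serum-free starvation, 2 h exposure to compound in 3× dilution series, and 30 min IGF1 stimulation at final 200 ng/mL.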

| SMILES | IC50 (IGF-1R [1]) | IC50 (IGF-1R [2]) |
| --- | --- | --- |
| CC1(C)C(=O)N(c2ccc(SC(F)(F)F)cc2)C(=O)N1Cc1ccnc(N)c1C#N [Compound 391, 2-amino-4-((5,5-dimethyl-2,4-dioxo-3-(4-((trifluoromethyl)thio)phenyl)imidazolidin-1-yl)methyl)nicotinonitrile] | ≤ 0.5 µM | ≤ 0.5 µM |
| CC(C)Nc1cc(CN2C(=O)N(c3ccc(SC(F)(F)F)nc3)C(=O)C2(C)C)ccn1 [Compound 392, 1-((2-(isopropylamino)pyridin-4-yl)methyl)-5,5-dimethyl-3-(6-((trifluoromethyl)thio)pyridin-3-yl)imidazolidine-2,4-dione] | 0.5 to 2 µM | 0.5 to 2 µM |
| COc1c(CN2C(=O)N(c3ccc(S(=O)(=O)C(F)(F)F)cc3)C(=O)C2(C)C)ccnc1N [Compound 394, 1-((2-amino-3-methoxypyridin-4-yl)methyl)-5,5-dimethyl-3-(4-((trifluoromethyl)sulfonyl)phenyl) imidazolidine-2,4-dione] | ≤ 0.5 µM | ≤ 0.5 µM |
| CN1C(=O)C2(CC2)c2ccc(N3C(=O)N(Cc4ccnc(N)c4)C(C)(C)C3=O)cc21 [Compound 402, 1-((2-aminopyridin-4-yl)methyl)-5,5-dimethyl-3-(1′-methyl-2′-oxospiro[cyclopropane-1,3′-indolin]-6′-yl)imidazolidine-2,4-dione] | 2 to 10 µM | 2 to 10 µM |
